# Marks after values point to notes of the source that are not given here.
# How the values were obtained:
# [1] = system: dTG rats with pre-established cardiorenal disease; assay: Survival study in older, enalapril-pre-treated dTG rats with established cardiorenal disease; format: in vivo, rat; conditions: male dTG rats, 10 mg/kg/day (40 mg/L in drinking water) from 3 to 8 weeks of age
# [2] = system: dTG rats overexpressing human renin and angiotensinogen; format: in vivo
# [3] = system: healthy male volunteers; assay: Human pharmacodynamics, multiple-dose phase
# [4] = system: healthy male volunteers; assay: Human safety and tolerability; format: in vivo; conditions: single or multiple doses
# [5] = system: dTG rats overexpressing human renin and angiotensinogen; assay: Survival study in young dTG rats; format: in vivo, rat
# [6] = system: ACTH-stimulated aldosterone, cortisol and precursors; assay: Human ACTH (cortisol) stimulation test, multiple-dose phase; format: in vivo
# [7] = dogs, ref D. Rigel, personal communication, cited from earlier work
# [8] = system: human CYP11B2; design: method as in PMID 24899257; conditions: cited from earlier work
# [9] = system: ACTH-stimulated aldosterone and corticosterone synthesis; design: method as in PMID 20354176; conditions: in vivo rat ACTH stimulation model; previous study; cited from earlier work
# [10] = system: Ang II-stimulated aldosterone release; design: method as in D. Rigel, personal communication; conditions: dogs; ref D. Rigel, personal communication; read-out: EC50, inhibition of Ang II-stimulated aldosterone release; cited from earlier work
# [11] = dTG rats, LCI699 3–100 mg/kg/day, eplerenone 30 mg/kg/day
# [12] = eplerenone 100 mg once daily, ANCOVA mean
smiles,measurement,setting,value
"CCOC(=O)[C@H](CCc1ccccc1)N[C@@H](C)C(=O)N1CCC[C@H]1C(=O)O [enalapril, reference compound]",prolongation of median survival by pre-treatment,[1],approximately 4 months
"COC(=O)[C@@H]1CC2=CC(=O)CC[C@]2(C)[C@@]23O[C@@H]2C[C@@]2(C)[C@@H](CC[C@@]24CCC(=O)O4)[C@H]13 [eplerenone, reference compound]",effect on BUN levels,[2]; 30 mg/kg,no significant effect
same,effect on LV fractional shortening,[2]; 30 mg/kg,no significant effect
same,effect on LV isovolumic relaxation time to RR (IVRT/RR) ratio,[2]; 30 mg/kg,no significant effect
same,effect on urine output,[2]; 30 mg/kg,no significant effect
same,effect on plasma aldosterone concentration,"[2]; dTG rats treated 3 to 7 weeks of age, LCI699 3–100 mg/kg/day in drinking water, eplerenone 30 mg/kg/day in chow",had no effect
same,effect on myocardial cell size,"[2]; dTG rats, LCI699 3–100 mg/kg/day, eplerenone 30 mg/kg",reduced but did not normalize
same,effect on mean arterial pressure,[2]; [11],neither LCI699 nor eplerenone normalized arterial pressure
same,effect on serum potassium,[2]; [11],had no effect
same,effect on urinary albumin excretion,[2]; [11],slightly increased
same,effect on urinary aldosterone excretion,[2]; [11],significantly increased
same,effect on LV weight,"[2]; dTG rats, LCI699 3–100 mg/kg/day, eplerenone 30 mg/kg, data not shown",had no effect
same,"Plasma potassium, Δ Day2 vs baseline (Day −1)",[3]; [12],+0.08 mEq/L
same,"Plasma potassium, Δ Day7 vs baseline (Day −1)",[3]; [12],−0.02 mEq/L
same,"Plasma potassium, Δ Day14 vs Day 7",[3]; [12],−0.09 mEq/L
same,"Plasma sodium, Δ Day2 vs baseline (Day −1)",[3]; [12],−0.64 mEq/L
same,"Plasma sodium, Δ Day7 vs baseline (Day −1)",[3]; [12],+0.31 mEq/L
same,"Plasma sodium, Δ Day14 vs Day 7",[3]; [12],−0.07 mEq/L
same,"Urinary potassium, Δ Day 1 vs baseline (Day −1)",[3]; [12],+5.2 mEq/24 h
same,"Urinary potassium, Δ Day 7 vs baseline (Day −1)",[3]; [12],+6.4 mEq/24 h
same,"Urinary potassium, Δ Day 14 vs Day 7",[3]; [12],+3.7 mEq/24 h
same,"Urinary sodium, Δ Day 1 vs baseline (Day −1)",[3]; [12],+53.8‡ mEq/24 h
same,"Urinary sodium, Δ Day 7 vs baseline (Day −1)",[3]; [12],+16.2 mEq/24 h
same,"Urinary sodium, Δ Day 14 vs Day 7",[3]; [12],−24.0 mEq/24 h
same,effect on plasma aldosterone concentration,"[3]; eplerenone 100 mg, Day 1",had no effect
same,increase in 24 hour urinary aldosterone,"[3]; eplerenone 100 mg, Day 1",34%
same,increase in 24 h urinary aldosterone levels,"[3]; eplerenone 100 mg, Day 7",118%
same,increase in PRA from baseline,"[3]; eplerenone 100 mg, Day 7",92%
same,increase in plasma aldosterone,"[3]; eplerenone 100 mg, Day 7",46%
same,increase in 24 h urinary aldosterone levels,"[3]; eplerenone 100 mg, Day 14",161%
same,increase in PRA,"[3]; eplerenone 100 mg, Day 14",130%
same,increase in plasma aldosterone,"[3]; eplerenone 100 mg, Day 14",63%
same,changes in supine systolic or diastolic blood pressure or heart rate compared with placebo,[4],no consistent changes
same,maximum effective dose for prolongation of survival,[5]; young dTG rats,30 mg/kg
same,doses at which survival was significantly prolonged,"[5]; young dTG rats without established cardiorenal disease, P < 0.01",> 10 mg/kg/day
same,maximum median survival time,"[5]; young dTG rats, dose–median survival curves",8.4 weeks
same,effect on ACTH-stimulated 11-DOC levels,"[6]; LCI699 0.5 mg, eplerenone 100 mg",no significant effect
same,effect on cortisol precursors (ACTH-stimulated),"[6]; eplerenone 100 mg and lower doses of LCI699 (0.5, 1 mg), Day 6 or Day 13",no significant effect
same,increase in ACTH-stimulated peak aldosterone levels,"[6]; eplerenone 100 mg, Day 6",63%
same,increase in pre-ACTH aldosterone levels 2 h post-dose vs Day −2,"[6]; eplerenone 100 mg, Day 6",29%
"N#Cc1ccc([C@H]2CCCc3cncn32)cc1 [FAD286A, reference compound]",oral bioavailability,[7]; 1 mg/kg oral dose,33%
same,half-life,[7],54 to 72 min
same,EC50,[10],136 nM

# From article PMC4301837, “Aldosterone synthase inhibition: cardiorenal protection in animal disease models and translation of hormonal effects to human subjects” (Journal of Translational Medicine, 2014)
